From patent US20100298141A1, “SUBSTITUTED PYRIDINE N-OXIDE HERBICIDES” (E. I. DU PONT DE NEMOURS AND COMPANY, priority 2007, published 2010) come the findings set out here.

The subject of one assay is canarygrass. The experiment in a line: Test C postemergence test. Type of assay: in vivo, Phalaris minor. The conditions noted are these: for Plant response rating (0 to 100), Canarygrass: 31 g ai/ha; for Plant response rating, Canarygrass: scale 0 to 100, 0 no effect, 100 complete control. As to the method:
At the same time, plants selected from these crop and weed species and also winter barley (Hordeum vulgare), canarygrass (Phalaris minor), and chickweed (Stellaria media) were treated with postemergence applications of some of the test chemicals formulated in the same manner. Plants ranged in height from 2 to 18 cm (1- to 4-leaf stage) for postemergence treatments. […] At time of treatment, test pots were flooded to 3 cm above the soil surface, treated by application of test compounds directly to the paddy water, and then maintained at that water depth for the duration of the test. Treated plants and controls were maintained in a greenhouse for 13 to 15 days, after which time all species were compared to controls and visually evaluated. […] A dash (-) response means no test result.

In the next assay the test system is common chickweed. In words: Test F preemergence test. Type of assay: in vivo, Stellaria media. The note with it: scale 0 to 100. The text has this:
Seeds of plant species selected from bermudagrass (Cynodon dactylon), Surinam grass (Brachiaria decumbens), large crabgrass (Digitaria sanguinalis), green foxtail (Setaria viridis), goosegrass (Eleusine indica), johnsongrass (Sorghum halepense), kochia (Kochia scoparia), pitted morningglory (Ipomoea lacunosa), purple nutsedge (Cyperus rotundus), common ragweed (Ambrosia elation), mustard (Brassica nigra), guineagrass (Panicum maximum), […] (Paspalum dilatatum), barnyardgrass (Echinochloa crus-galli), southern sandbur (Cenchrus echinatus), common sowthistle (Sonchus oleraceous), prickly […] spinosa), Italian ryegrass (Lolium multiflorum), common purslane (Portulaca oleracea), broadleaf signalgrass (Brachiaria platyphylla), common groundsel (Senecio vulgaris), common chickweed (Stellaria media), Virginia dayflower (Commelina virginica), annual bluegrass (Poa annua), naked crabgrass (Digitaria nuda), […] cochinchinensis), quackgrass (Elytrigia repens), Canada horseweed (Conyza canadensis), field bindweed (Convolvulus arvensis), […] (Bidens bipinnata), common mallow (Malva sylvestris), Russian thistle (Salsola kali), and sugarcane (Saccharum officinarum) were planted and treated preemergence with test chemicals formulated in a non-phytotoxic solvent mixture which included a surfactant. At a different time, sugarcane was treated with postemergence applications of some of the test chemicals formulated in the same manner. Plants were approximately 3- to 4-leaf stage for the postemergence treatments. Treated plants and controls were maintained in a greenhouse for 14 to 21 days, after which time all species were compared to controls and visually evaluated. […] A dash (-) response means no test result.

The next assay concerns windgrass. In words: Test C pre-/postemergence test. Type of assay: in vivo, Apera spica-venti. The conditions noted are these: Postemergence; for Plant response rating, Windgrass: scale 0 to 100, 0 no effect, 100 complete control. An excerpt: Seeds of plant species selected from blackgrass (Alopecurus myosuroides), downy brome (Bromus tectorum), green foxtail (Setaria viridis), Italian ryegrass (Lolium multiflorum), wheat (Triticum aestivum), wild oat (Avena fatua), catchweed bedstraw (Galium aparine), Russian thistle (Salsola kali), […] (Cynodon dactylon), Surinam grass (Brachiaria decumbens), cocklebur (Xanthium strumarium), corn (Zea mays), crabgrass (Digitaria sanguinalis), woolly cupgrass (Eriochloa villosa), giant foxtail (Setaria faberii), Goosegrass (Eleusin indica), johnsongrass (Sorghum halepense), kochia (Kochia scoparia), lambsquarters (Chenopodium album), morningglory (Ipomoea coccinea), eastern black nightshade (Solanum ptycanthum), yellow nutsedge (Cyperus esculentus), pigweed (Amaranthus retroflexus), common ragweed (Ambrosia elation), soybean (Glycine max), common (oilseed) sunflower (Helianthus annuus), and velvetleaf (Abutilon theophrasti) were planted and treated preemergence with test chemicals formulated in a non-phytotoxic solvent mixture which included a surfactant. At the same time, plants selected from these crop and weed species and also winter barley (Hordeum vulgare), canarygrass (Phalaris minor), and chickweed (Stellaria media) were treated with postemergence applications of some of the test chemicals formulated in the same manner. Plants ranged in height from 2 to 18 cm (1- to 4-leaf stage) for postemergence treatments. […] At time of treatment, test pots were flooded to 3 cm above the soil surface, treated by application of test compounds directly to the paddy water, and then maintained at that water depth for the duration of the test. […] A dash (-) response means no test result.

For the compound `CC(c1c(C(F)(F)F)nn(C)c1OC(F)F)S(=O)(=O)c1cccc[n+]1[O-]` (stereo not shown) [Compound 5], the “Plant response rating (0 to 100), Canarygrass” value in the assay with canarygrass is 0. Moreover, the “Plant response rating, Canarygrass” value in the assay on canarygrass (62 g ai/ha), in the assay on canarygrass (125 g ai/ha) and with canarygrass (250 g ai/ha) was 0 in each case. Further, the “Plant response rating, Chickweed” value in the assay with common chickweed (8 g ai/ha, preemergence) is reported as 100; in the assay on common chickweed (Preemergence, 16 g ai/ha) it was 100; in the assay on common chickweed (Preemergence, 31 g ai/ha), 100. The “Chickweed plant response rating” value in the assay on common chickweed (62 g ai/ha, Preemergence) amounted to 100. Also, the “Plant response rating (0 to 100), Windgrass” value was 30 in the assay with windgrass (31 g ai/ha) and 60 in the assay with windgrass (62 g ai/ha). Besides, the “Plant response rating, Windgrass” value with windgrass (125 g ai/ha) is 70; in the assay with windgrass (250 g ai/ha), 75.
Regarding `Cn1nc(C(F)(F)F)c(C[S+]([O-])c2ccc(Cl)c[n+]2[O-])c1OC(F)F` (stereo not shown) [Compound 6], the “Plant response rating (0 to 100), Canarygrass” value with canarygrass was 0. Further, the “Plant response rating, Canarygrass” value amounted to 0 with canarygrass (62 g ai/ha), 0 with canarygrass (125 g ai/ha) and 10 in the assay with canarygrass (250 g ai/ha). Moreover, the “Plant response rating, Chickweed” value was 80 in the assay on common chickweed (8 g ai/ha, preemergence); 100 in the assay with common chickweed (Preemergence, 16 g ai/ha); 100 with common chickweed (Preemergence, 31 g ai/ha). In addition, the “Chickweed plant response rating” value in the assay with common chickweed (62 g ai/ha, Preemergence) came out at 100. The “Plant response rating (0 to 100), Windgrass” value amounted to 50 in the assay with windgrass (31 g ai/ha) and 98 in the assay on windgrass (62 g ai/ha). For the same compound, the “Plant response rating, Windgrass” value with windgrass (125 g ai/ha) and in the assay with windgrass (250 g ai/ha) was 100 in each case.
As to `Cn1nc(C(F)(F)F)c(C[S+]([O-])c2ccc(F)c[n+]2[O-])c1OC(F)F` (stereo not shown) [Compound 58], the “Plant response rating (0 to 100), Canarygrass” value in the assay with canarygrass stood at 0. The “Plant response rating, Canarygrass” value in the assay with canarygrass (62 g ai/ha), in the assay on canarygrass (125 g ai/ha) and in the assay with canarygrass (250 g ai/ha) was 0 each time. Also, the “Chickweed plant response rating” value stood at 95 in the assay on common chickweed (62 g ai/ha, Preemergence); 100 in the assay on common chickweed (125 g ai/ha, preemergence); 100 in the assay with common chickweed (250 g ai/ha, preemergence). The “Plant response rating (0 to 100), Windgrass” value in the assay on windgrass (31 g ai/ha) is on record as 20; in the assay with windgrass (62 g ai/ha), 40. For the same compound, the “Plant response rating, Windgrass” value is listed as 70 in the assay with windgrass (125 g ai/ha) and 95 in the assay on windgrass (250 g ai/ha).
Regarding `CCn1nc(C(F)(F)F)c(CS(=O)(=O)c2cc(C)cc[n+]2[O-])c1OCC(F)(F)F` [Compound 64], the “Plant response rating (0 to 100), Canarygrass” value with canarygrass is listed as 0. Moreover, the “Plant response rating, Canarygrass” value came to 0 in the assay on canarygrass (62 g ai/ha), 5 in the assay on canarygrass (125 g ai/ha) and 10 with canarygrass (250 g ai/ha). For the same compound, the “Plant response rating, Chickweed” value with common chickweed (16 g ai/ha, preemergence) is listed as 65; in the assay with common chickweed (Preemergence, 31 g ai/ha) it was 100. In addition, the “Chickweed plant response rating” value turned out to be 100 in the assay on common chickweed (62 g ai/ha, Preemergence) and 100 with common chickweed (125 g ai/ha, preemergence). Besides, the “Plant response rating (0 to 100), Windgrass” value with windgrass (31 g ai/ha) is 0; in the assay with windgrass (62 g ai/ha), 90. Also, the “Plant response rating, Windgrass” value in the assay on windgrass (125 g ai/ha) was found to be 98; in the assay on windgrass (250 g ai/ha), 100.
As for `Cn1nc(C(F)(F)F)c(C[S+]([O-])c2ccc(F)c[n+]2[O-])c1OCC(F)(F)F` (stereo not shown) [Compound 67], the “Plant response rating (0 to 100), Canarygrass” value in the assay on canarygrass was 0. The results for the “Plant response rating, Canarygrass” value with canarygrass (62 g ai/ha), with canarygrass (125 g ai/ha) and in the assay on canarygrass (250 g ai/ha) were 0, 10 and 10, respectively. The “Chickweed plant response rating” value in the assay on common chickweed (62 g ai/ha, Preemergence) came out at 100; in the assay on common chickweed (125 g ai/ha, preemergence), 100. Also, the “Plant response rating, Chickweed” value in the assay on common chickweed (Preemergence, 31 g ai/ha) stood at 40. The “Plant response rating (0 to 100), Windgrass” value was 30 with windgrass (31 g ai/ha) and 100 in the assay with windgrass (62 g ai/ha). Moreover, the “Plant response rating, Windgrass” value with windgrass (125 g ai/ha) and with windgrass (250 g ai/ha) was 100 in each case.
